One compound from patent US20210378193A1, “HAPLOID EMBRYOGENESIS” (STICHTING WAGENINGEN RESEARCH, priority 2013, published 2021) can be followed below.

Assay [1] concerns BABY BOOM (BBM); LEAFY COTYLEDON1 (LEC1); LEC2, and FUSCA3. Nature of the assay: semi-quantitative RT-PCR of embryo-expressed genes in B. napus microspore culture. Conditions: TSA-treated microspore cultures, regardless of culture temperature. In kind it is cell-based, Brassica napus. As to the method: Total RNA isolation and on-column DNase digestion were performed using the InviTrap Spin Plant RNA Mini Kit (Invitek) according to the manufacturer's instructions. For semi-quantitative RT-PCR, 250 ng of total RNA was used for first-strand cDNA synthesis with the Taqman Reverse Transcription Reagents Kit (Applied Biosystems). The cycling parameters were: one cycle at 98° C. for 30 s, 30 cycles comprising 98° C. for 5 s, 60° C. for 30 s, followed by 72° C. for 1 min. The semi-quantitative RT-PCR primers are from Malik et al. (2007) Plant Physiol. 144: 134-154. The quantitative RT-PCR primers for microarray validation were designed based on oligonucleotide probes from Affymetrix GeneChip® Brassica Exon 1.0ST Array (see Malik et al. (2007) supra and Love, C. G., et al. (2010) PloS one 5: e12812). The Arabidopsis hda T-DNA insertion lines were genotyped using the PCR primers. […]
The cell clusters that are formed in heat-stressed, TSA-treated cultures resemble those found in control cultures that are only exposed to a heat-stress treatment. […] Semi-quantitative RT-PCR and GFP reporter lines were used to determine whether the different types of sporophytic structures that develop in control and TSA-treated cultures are embryogenic. […]

The subject of assay [2] is Brassica oleracea Gongylodes group (kohlrabi) microspores. Nature of the assay: embryo production in Brassica oleracea Gongylodes group (kohlrabi) microspore culture. Format: cell-based. The source says: Microspores of different developmental stages were isolated by a standard method ([…] 1982, Journal of Plant Physiology 105:427-434).
Assay [3] deals with B. rapa genotypes microspore culture. Nature of the assay: embryogenic cell divisions in Brassica rapa microspore culture. Format: cell-based. Conditions: 0.5 μM TSA, six B. rapa genotypes. How it is done:
The following B. rapa genotypes were tested in an experiment that measured t h e embryogenic activity of 0.5 μM TSA in microspore culture against respective controls in the absence of TSA: Microspores were obtained from donor buds. Donor buds were ranked from youngest (1) tooldest (3) developmental stage, whereby (2) is an intermediate stage. […] The data also indicates how genotype and/or donor bud stage may influence the level of embryogenic cell divisions caused by enhancement with TSA treatment over controlsin […]. Such stage-dependency is a normal observation in this tissue culture system.

Assay [4] concerns B. napus microspore culture. Nature of the assay: embryo yield in B. napus microspore culture. In kind it is cell-based, Brassica napus. How it is done: Brassica napus L. DH12075 was used as a donor plant for microspore embryo culture. The B. napus plant growth and microspore isolation procedures were performed as described in Custers, J. B. M. (2003) “Microspore culture in rapeseed (Brassica napus L.)” in Doubled haploid production in crop plants: a manual, M. Maluszynski, K. J. Kasha, B. P. Forster, and I. Szarejko, eds (Dordrecht: Kluwer Academic Publishers), pp. 185-193. Flower buds for microspore culture were grouped by size (measured from the tip of the flower bud to the bottom of the sepal), ranging from 3.0 to 3.5 mm for DH4079 and from 2.6 to 4.0 mm for DH12075. The microspores were isolated and cultured in NLN-13 medium (see Lichter, R. (1982) […]. For induction of embryogenesis, microspores were cultured in the dark at 33° C. for 20 hours and subsequently transferred to 25° C. Non-induced microspore cultures were cultured continuously at 25° C. or 18° C. Trichostatin A (TSA, Sigma-Aldrich) was prepared in DMSO. Freshly isolated microspores were inoculated in a medium containing TSA or the same volume of DMSO as a control and cultured for 20 hours at the temperature indicated for each experiment. After this period, the cultures were centrifuged at 200 g for 3 min, resuspended in fresh NLN-13 medium without TSA, and transferred to 25° C.
The developmental fate of heat-stressed control cultures and cultures exposed to both heat-stress and TSA was followed by examining older cultures in more detail. […] Heat-stressed microspores and pollen were treated with a range of TSA concentrations, and the cultures examined after five and 15 days using DAPI staining to characterize the different multicellular structures that developed.
Microspores and immature pollen from different bud sizes were cultured in the presence of different concentrations of TSA compared with the equivalent volume of DMSO (control) at three temperatures: A-D=33° C., D-F=25° C., G-H=18° C. For each treatment, the samples are ranked from left to right along the z-axis according to the developmental stage of the microspores and pollen. […] The microspores and pollen were categorized as follows: mid-uninucleate microspore (white bars), late-uninucleate microspore (grey bars), and binucleate pollen (black bars) stages. […] The percentage of cells that divided gametopyhytically or sporophytically after five days of microspore culture at B=33° C., E=25° C., H=18° C. […] Dead microspores and pollen were not counted. […]

For `CC(/C=C/C(=O)NO)=C\[C@@H](C)C(=O)c1ccc(N(C)C)cc1` [TSA, trichostatin A], the “expression of BBM, LEC1, LEC2 and FUSCA3” value in assay [1] is “enhanced”. For the same compound, the “general embryo production, sum of experiments” value in assay [2] (0.5 μM TSA, not heat-shocked (25° C.), control sum 204) came to 841. Moreover, the “large embryos in a recalcitrant (non-responsive) genotype” value in assay [2] (18 days, not in the control) was “Large embryos are present”. The “embryogenic clusters in a recalcitrant (non-responsive) genotype” value in assay [2] (early time point, not in the control culture) was “found at an early time point”. In assay [3], the “total number of embryogenic cells per bud size compared to the control” value was “greatly increases”. In assay [4] (culture at 25° C. (no heat stress), practically none in controls), the embryo production entry was “Up to 0.2%”. The “development of histodifferentiated embryos” value in assay [4] (cultured at 18° C.) was “did not develop”. The “embryo abundance relative to control cultures” value in assay [4] (heat-stressed cultures, 0.05 μM TSA) was “up to five times more abundant than in control cultures”. Further, the “heart to cotyledon stage embryos” value in assay [4] (heat-stressed cultures, 0.5 μM TSA, 15 days, control up to 0.3%) is recorded as “up to 0.05%”.
